Data published in ChEMBL document CHEMBL3407392, “Design, syntheses, structure-activity relationships and docking studies of coumarin derivatives as novel selective ligands for the CB2 receptor” (Eur J Med Chem, 2015).

What was measured:
[1] = molecular target: T1, Cannabinoid receptor 1 (Homo sapiens, UniProt P21554); type: functional, cell-based, CHO
[2] = molecular target: T2, Cannabinoid receptor 2 (Homo sapiens, UniProt P34972); experiment: Antagonist activity at CB2 receptor (unknown origin) expressed in CHO cells up to 10 uM incubated for 10 mins prior to CP55940 addition by calcium mobilization assay; type: functional, cell-based
[3] = molecular target: T2, Cannabinoid receptor 2; experiment: Agonist activity at CB2 receptor (unknown origin) expressed in CHO cells by calcium mobilization assay; type: functional, cell-based
[4] = molecular target: T1, Cannabinoid receptor 1; experiment: Agonist activity at CB1 receptor (unknown origin) expressed in CHO cells by calcium mobilization assay; type: functional, cell-based
[5] = molecular target: T2, Cannabinoid receptor 2; experiment: Binding affinity to CB2 receptor (unknown origin)
[6] = species on record: Homo sapiens; experiment: Selectivity index, ratio of IC50 for CB1 receptor (unknown origin) to IC50 for CB2 receptor (unknown origin)
[7] = molecular target: T2, Cannabinoid receptor 2; experiment: Agonist activity at CB2 receptor (unknown origin) expressed in CHO cells at 10 uM by calcium mobilization assay relative to control; type: functional, cell-based
[8] = species on record: Homo sapiens; experiment: Selectivity index, ratio of EC50 for CB1 receptor (unknown origin) to EC50 for CB2 receptor (unknown origin)

T1 sequence (P21554 whole entry): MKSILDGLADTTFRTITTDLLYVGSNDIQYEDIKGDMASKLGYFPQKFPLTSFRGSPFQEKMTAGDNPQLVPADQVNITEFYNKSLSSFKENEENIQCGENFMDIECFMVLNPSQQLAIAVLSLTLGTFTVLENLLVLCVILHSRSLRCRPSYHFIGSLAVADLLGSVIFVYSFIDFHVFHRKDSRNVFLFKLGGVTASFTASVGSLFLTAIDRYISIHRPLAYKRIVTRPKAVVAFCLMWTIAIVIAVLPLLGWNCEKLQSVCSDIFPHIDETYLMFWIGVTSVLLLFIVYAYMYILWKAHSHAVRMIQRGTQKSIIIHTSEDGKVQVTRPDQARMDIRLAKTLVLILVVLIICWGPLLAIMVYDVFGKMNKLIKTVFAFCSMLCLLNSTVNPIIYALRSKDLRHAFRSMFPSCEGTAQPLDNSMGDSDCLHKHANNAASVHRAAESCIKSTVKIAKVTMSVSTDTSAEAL
T2 sequence (P34972 whole entry): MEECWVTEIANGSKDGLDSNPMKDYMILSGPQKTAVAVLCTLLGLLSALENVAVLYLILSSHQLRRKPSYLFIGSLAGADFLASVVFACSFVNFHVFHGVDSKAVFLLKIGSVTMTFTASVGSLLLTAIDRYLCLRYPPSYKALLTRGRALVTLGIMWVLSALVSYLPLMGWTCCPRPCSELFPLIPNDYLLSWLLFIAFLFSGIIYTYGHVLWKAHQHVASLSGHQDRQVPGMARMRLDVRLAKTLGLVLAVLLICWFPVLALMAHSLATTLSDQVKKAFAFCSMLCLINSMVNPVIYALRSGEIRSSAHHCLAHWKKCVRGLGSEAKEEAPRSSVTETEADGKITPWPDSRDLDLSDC

CCCCOc1cc(Br)cc2cc(C(=O)NC(C)C)c(=O)oc12
IC50 [1]: > 10000 nM | IC50 [2]: > 10000 nM

CCCCOc1cccc2cc(C(=O)N3CCCCC3)c(=O)oc12
EC50 [3]: > 10000 nM | EC50 [4]: > 10000 nM

CCCCCOc1c(OC)ccc2cc(C(=O)N3CCCc4ccccc4C3)c(=O)[nH]c12
Ki [5]: 118 nM

CCCCCOc1c(OC)ccc2c1CN(CCc1ccc(N)cc1)C2=O
Ki [5]: 14 nM

CCOc1cccc2cc(C(=O)NC3CCCCC3)c(=O)oc12
EC50 [3]: > 10000 nM | EC50 [4]: > 10000 nM

CCCCCOc1cc(Br)cc2cc(C(=O)NC3CCCCC3)c(=O)oc12
IC50 [1]: > 10000 nM | Ratio IC50 [6]: 4.6 | IC50 [2]: 2190 nM

O=C(NC1CCCCC1)c1cc2cccc(OCC3CC3)c2oc1=O
Activity [7]: 42% | EC50 [4]: > 10000 nM

CCCCCOc1c(OC)ccc2c1C(=O)N(CCc1ccc(O)cc1)C2=O
Ki [5]: 7.3 nM

CCCCOc1c(OC)ccc2cc(C(=O)NCC3CC3)c(=O)oc12
IC50 [1]: > 10000 nM | Ratio IC50 [6]: > 8.5 | IC50 [2]: 1180 nM

CCCCCOc1ccc2c(c1OCCCCC)CN(CCc1ccc(N)cc1)C2=O
Ki [5]: 0.11 nM

CCCCCSc1cc(/C=C/C(=O)NCCc2ccc(O)cc2)ccc1OC
Ki [5]: 1.1 nM

CCCCOc1c(OC)ccc2cc(C(=O)NC(C)CCC)c(=O)oc12 (stereo not drawn)
IC50 [1]: > 10000 nM | Ratio IC50 [6]: > 526 | IC50 [2]: 19 nM

CCCCOc1cc(Br)cc2cc(C(=O)NN3CCOCC3)c(=O)oc12
IC50 [1]: > 10000 nM | IC50 [2]: > 10000 nM

CCCCCOc1ccc(C(=O)NCCc2ccc(N)cc2)cc1SCCCCC
Ki [5]: 1.9 nM

CCCCOc1cccc2cc(C(=O)NCc3ccccc3)c(=O)oc12
EC50 [3]: > 10000 nM | EC50 [4]: > 10000 nM

O=C(NC1CCCCC1)c1cc2cc(Br)cc(OCC3CC3)c2oc1=O
IC50 [1]: > 10000 nM | Ratio IC50 [6]: > 13.4 | IC50 [2]: 746 nM

CCCCCOc1cc(C(=O)NCCc2ccc(O)cc2)ccc1OC
Ki [5]: 2.5 nM

CCCCOc1cccc2cc(C(=O)NC(C)C)c(=O)oc12
EC50 [3]: 103 nM | Ratio EC50 [8]: > 97.1 | EC50 [4]: > 10000 nM

CCCOc1cccc2cc(C(=O)NC3CCCCC3)c(=O)oc12
EC50 [3]: > 10000 nM | EC50 [4]: > 10000 nM

CCCOc1cc(Br)cc2cc(C(=O)NC3CCCCC3)c(=O)oc12
IC50 [1]: > 10000 nM | IC50 [2]: > 10000 nM

CCCCCOc1c(OC)ccc2c1CCN(CCc1ccc(O)cc1)C2=O
Ki [5]: 1.8 nM

CCCCCOc1c(OC)ccc2c(=O)n(CCc3ccc(O)cc3)ccc12
Ki [5]: 3.7 nM

CCCCOc1cccc2cc(C(=O)NC34CC5CC(CC(C5)C3)C4)c(=O)oc12
EC50 [3]: > 10000 nM | EC50 [4]: > 10000 nM

O=C(NC1CCCCC1)c1cc2cccc(OCc3ccccc3)c2oc1=O
Activity [7]: 33% | EC50 [4]: > 10000 nM

CCCCOc1c(OC)ccc2cc(C(=O)NC(CC)CC)c(=O)oc12
IC50 [1]: > 10000 nM | Ratio IC50 [6]: > 500 | IC50 [2]: 20 nM

CCCCOc1cccc2cc(C(=O)NC3CC3)c(=O)oc12
Activity [7]: 34% | EC50 [4]: > 10000 nM

CCCCOc1c(OC)ccc2cc(C(=O)NC(C)C)c(=O)oc12
IC50 [1]: > 10000 nM | Ratio IC50 [6]: > 61.7 | IC50 [2]: 162 nM

CCCCCOc1cc(C(=O)NCCc2ccncc2)ccc1OC
Ki [5]: 73 nM

CCCCCOc1cc(/C=C/C(=O)NCCc2ccc(O)cc2)ccc1OC
Ki [5]: 4.8 nM

O=C(NCC1CCOCC1)c1cnc(Nc2ccc(Cl)cc2Cl)nc1C(F)(F)F [GW842166X]
EC50 [3]: 431 nM | Ratio EC50 [8]: > 23.2 | EC50 [4]: > 10000 nM

CCCCCCOc1cc(Br)cc2cc(C(=O)NC3CCCCC3)c(=O)oc12
IC50 [1]: > 10000 nM | IC50 [2]: > 10000 nM

CCCCOc1cccc2cc(C(=O)NCC3CC3)c(=O)oc12
EC50 [3]: > 10000 nM | EC50 [4]: > 10000 nM

CCCCOc1cccc2cc(C(=O)NN3CCCCC3)c(=O)oc12
Activity [7]: 37% | EC50 [4]: > 10000 nM

CCCCOc1c(OC)ccc2cc(C(=O)NC3CCCCC3)c(=O)oc12
IC50 [1]: > 10000 nM | Ratio IC50 [6]: > 454 | IC50 [2]: 22 nM

CCCCOc1cccc2cc(C(=O)NC(C)C(C)C)c(=O)oc12 (stereo not drawn)
Activity [7]: 41% | EC50 [4]: > 10000 nM

CCCCCOc1ccc(C(=O)NCCc2ccc(O)cc2)cc1OCCCCC
Ki [5]: 0.44 nM

CCCCCOc1c(OC)ccc2cc(C(=O)N3CCCC(C(=O)OCC)C3)c(=O)[nH]c12 (stereo not drawn)
Ki [5]: 100 nM

CCCCOc1cccc2cc(C(=O)NC3CCCC3)c(=O)oc12
EC50 [3]: 793 nM | Ratio EC50 [8]: > 12.6 | EC50 [4]: > 10000 nM

CCCCCCOc1cccc2cc(C(=O)NC3CCCCC3)c(=O)oc12
Activity [7]: 36% | EC50 [4]: > 10000 nM

CCCCCOc1c(OC)ccc2cc(C(=O)NC3CCCCC3)c(=O)oc12
IC50 [1]: > 10000 nM | Ratio IC50 [6]: > 164 | IC50 [2]: 61 nM

CCCCOc1cccc2cc(C(=O)NC(CC)CC)c(=O)oc12
EC50 [3]: 130 nM | Ratio EC50 [8]: > 76.9 | EC50 [4]: > 10000 nM

CCCCOc1c(OC)ccc2cc(C(=O)NCCc3ccccc3)c(=O)[nH]c12
Ki [5]: 0.33 nM

CCCCCOc1c(OC)ccc2c1CN(CCc1ccc(O)cc1)C2=O
Ki [5]: 11 nM

CCCCOc1cc(Br)cc2cc(C(=O)NC3CC3)c(=O)oc12
IC50 [1]: > 10000 nM | IC50 [2]: > 10000 nM

CCCCOc1cccc2cc(C(=O)NC(C)CCC)c(=O)oc12 (stereo not drawn)
EC50 [3]: 321 nM | Ratio EC50 [8]: > 31.2 | EC50 [4]: > 10000 nM

CCCOc1c(OC)ccc2cc(C(=O)NC3CCCCC3)c(=O)oc12
IC50 [1]: > 10000 nM | Ratio IC50 [6]: > 12.4 | IC50 [2]: 807 nM

CCCCOc1cccc2cc(C(=O)NC(C)(C)C)c(=O)oc12
EC50 [3]: 972 nM | Ratio EC50 [8]: > 10.3 | EC50 [4]: > 10000 nM

CCCCCOc1cc(C(=O)NC2CCc3cc(O)c(O)cc3C2)ccc1OC (stereo not drawn)
Ki [5]: 18 nM

CCCCCOc1cc(/C=C/C(=O)NCCc2ccncc2)ccc1OC
Ki [5]: 44 nM

CCCCOc1c(OC)ccc2cc(C(=O)NC(C)C(C)C)c(=O)oc12 (stereo not drawn)
IC50 [1]: > 10000 nM | Ratio IC50 [6]: > 357 | IC50 [2]: 28 nM

CCCCOc1cccc2cc(C(=O)NC3CCCCC3)c(=O)oc12
EC50 [3]: 144 nM | Ratio EC50 [8]: > 69.4 | EC50 [4]: > 10000 nM

CCCCOc1cc(Br)cc2cc(C(=O)NC3CCCCC3)c(=O)oc12
IC50 [1]: > 10000 nM | Ratio IC50 [6]: > 111 | IC50 [2]: 90 nM

CCCCCNc1c(OC)ccc2c1CN(CCc1ccc(O)cc1)C2=O
Ki [5]: 0.088 nM

CCCCOc1cccc2cc(C(=O)NN3CCOCC3)c(=O)oc12
EC50 [3]: > 10000 nM | EC50 [4]: > 10000 nM

CCCCNC(=O)c1cc2cccc(OCCCC)c2oc1=O
EC50 [3]: > 10000 nM | EC50 [4]: > 10000 nM

CCCCCOc1cccc2cc(C(=O)NC3CCCCC3)c(=O)oc12
EC50 [3]: 245 nM | Ratio EC50 [8]: > 40.8 | EC50 [4]: > 10000 nM

CCCCCOc1c(OC)ccc2c(=O)n(CCc3ccncc3)ccc12
Ki [5]: 8.4 nM

CCCCCOc1c(OC)ccc2cc(C(=O)NCc3ccc4c(c3)OCO4)c(=O)oc12
Ki [5]: 0.087 nM | IC50 [1]: > 10000 nM | Ratio IC50 [6]: > 15.5 | IC50 [2]: 644 nM
